US20250268975A1 (priority 2024, published 2025)
*1 amine or outer side, *2 acyl side, *3 side chain or, on linkers, in order; H or OH if unused. Where a SMILES comes first, the peptide text is derived from it. [ ]: non-standard residue; d: D form. X1 = CCCCCCCCCCCCCCN(CC(=O)[*:2])[*:1]; Nrpe = C[C@@H](NCC(=O)O)c1ccccc1; Nlys = NCCCCNCC(=O)O

System: transgenic Zaire Ebola virus (EBOV) of the Mayinga strain, expressing green fluorescent protein (EBOV-GFP)
Type: cell-based

Question: `CCCCCCCCCCCCCCNCC(=O)N(CCCCN)CC(=O)N(CC(=O)N(CC(=O)N(CCCCN)CC(N)=O)[C@H](C)c1ccccc1)[C@H](C)c1ccccc1` [MXB-24,816, H-Ntetradec-Nlys-Nspe-Nspe-Nlys-NH2] (H-[X1][Nlys][Nrpe][Nrpe][Nlys]-NH2) was tested. Which “antiviral activity against Ebola virus (inhibition of viral titers and GFP-positive Ebola virus replication)” value did it give?
Answer: showed antiviral activity
